# Assay results published in ChEMBL document CHEMBL5291721, “A preclinical secondary pharmacology resource illuminates target-adverse drug reaction associations of marketed drugs” (Nat Commun, 2023).
# Columns and labels:
# Histamine H2 receptor = Histamine H2 receptor (Homo sapiens, UniProt P25021); type: functional, cell-based
# [1] = biological target: T1, Gastrin/cholecystokinin type B receptor (Homo sapiens, UniProt P32239)
# T1 sequence (P32239 whole entry): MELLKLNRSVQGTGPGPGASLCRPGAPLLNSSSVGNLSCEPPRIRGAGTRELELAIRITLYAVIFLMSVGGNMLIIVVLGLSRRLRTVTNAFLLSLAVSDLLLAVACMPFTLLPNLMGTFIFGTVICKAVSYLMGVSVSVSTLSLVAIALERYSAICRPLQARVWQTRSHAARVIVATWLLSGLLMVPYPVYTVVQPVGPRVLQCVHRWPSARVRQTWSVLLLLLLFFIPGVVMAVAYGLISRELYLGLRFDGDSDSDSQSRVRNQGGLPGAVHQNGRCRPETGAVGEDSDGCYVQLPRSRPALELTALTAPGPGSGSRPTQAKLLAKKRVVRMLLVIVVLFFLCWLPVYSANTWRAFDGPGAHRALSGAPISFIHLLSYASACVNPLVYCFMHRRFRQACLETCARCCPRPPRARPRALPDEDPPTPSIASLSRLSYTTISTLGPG
# Vasopressin V1a receptor = Vasopressin V1a receptor (Homo sapiens, UniProt P37288)
# Chain of Vasopressin V1a receptor (P37288 whole entry): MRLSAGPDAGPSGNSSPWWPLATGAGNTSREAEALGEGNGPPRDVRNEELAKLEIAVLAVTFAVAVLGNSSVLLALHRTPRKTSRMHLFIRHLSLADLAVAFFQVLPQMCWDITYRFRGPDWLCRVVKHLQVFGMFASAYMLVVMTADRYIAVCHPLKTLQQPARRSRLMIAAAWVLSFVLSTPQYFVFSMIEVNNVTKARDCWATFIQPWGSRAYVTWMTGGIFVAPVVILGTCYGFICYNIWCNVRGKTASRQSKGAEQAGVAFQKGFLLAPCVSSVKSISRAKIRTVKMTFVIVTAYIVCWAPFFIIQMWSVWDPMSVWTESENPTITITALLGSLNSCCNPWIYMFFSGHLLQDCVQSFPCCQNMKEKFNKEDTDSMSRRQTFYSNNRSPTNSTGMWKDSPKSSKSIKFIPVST
# Endothelin-1 receptor = biological target: T2, Endothelin-1 receptor (Homo sapiens, UniProt P25101)
# T2 sequence (P25101 whole entry): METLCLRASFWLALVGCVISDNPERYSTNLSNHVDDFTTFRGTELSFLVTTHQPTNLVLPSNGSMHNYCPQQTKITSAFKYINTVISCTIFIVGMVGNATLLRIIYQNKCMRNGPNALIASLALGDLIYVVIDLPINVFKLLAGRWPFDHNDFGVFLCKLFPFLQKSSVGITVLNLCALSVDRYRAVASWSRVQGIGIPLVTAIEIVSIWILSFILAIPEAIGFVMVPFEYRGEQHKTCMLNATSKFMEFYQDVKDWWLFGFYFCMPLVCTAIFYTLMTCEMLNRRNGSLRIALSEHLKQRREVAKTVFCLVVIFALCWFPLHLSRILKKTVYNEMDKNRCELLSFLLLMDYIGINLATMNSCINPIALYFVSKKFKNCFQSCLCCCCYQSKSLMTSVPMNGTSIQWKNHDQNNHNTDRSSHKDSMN
# Thromboxane A2 receptor = biological target: T3, Thromboxane A2 receptor (Homo sapiens, UniProt P21731); type: functional, cell-based
# T3 sequence (P21731 whole entry): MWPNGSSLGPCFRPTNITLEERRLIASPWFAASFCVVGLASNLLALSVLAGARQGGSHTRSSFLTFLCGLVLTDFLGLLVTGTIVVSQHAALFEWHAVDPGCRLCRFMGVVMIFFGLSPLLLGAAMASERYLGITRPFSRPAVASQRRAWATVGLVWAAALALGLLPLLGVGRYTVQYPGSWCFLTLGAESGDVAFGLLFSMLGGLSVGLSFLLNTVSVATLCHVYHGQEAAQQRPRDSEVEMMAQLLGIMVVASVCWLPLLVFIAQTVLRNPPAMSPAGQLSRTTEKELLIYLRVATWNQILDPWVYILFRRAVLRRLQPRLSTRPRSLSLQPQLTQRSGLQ
# [2] = biological target: Sodium-dependent noradrenaline transporter (Homo sapiens, UniProt P23975)
# Chain of Sodium-dependent noradrenaline transporter (P23975 whole entry): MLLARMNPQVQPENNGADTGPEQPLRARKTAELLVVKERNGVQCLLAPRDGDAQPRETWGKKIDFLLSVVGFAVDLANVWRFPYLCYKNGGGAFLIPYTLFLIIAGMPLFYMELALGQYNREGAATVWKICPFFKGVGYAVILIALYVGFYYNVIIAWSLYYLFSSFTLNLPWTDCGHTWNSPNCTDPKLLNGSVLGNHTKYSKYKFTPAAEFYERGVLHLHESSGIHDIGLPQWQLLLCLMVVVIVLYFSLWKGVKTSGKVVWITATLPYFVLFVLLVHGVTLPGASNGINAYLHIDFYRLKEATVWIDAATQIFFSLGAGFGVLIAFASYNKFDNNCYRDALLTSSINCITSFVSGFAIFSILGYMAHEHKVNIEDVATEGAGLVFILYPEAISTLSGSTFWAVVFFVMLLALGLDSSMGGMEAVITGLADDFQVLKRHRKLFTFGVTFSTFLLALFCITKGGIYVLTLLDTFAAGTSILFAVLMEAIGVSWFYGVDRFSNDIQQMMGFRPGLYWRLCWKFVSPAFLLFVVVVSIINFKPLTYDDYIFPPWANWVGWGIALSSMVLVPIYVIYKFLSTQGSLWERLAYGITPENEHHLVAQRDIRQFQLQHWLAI
# Histamine H3 receptor = Histamine H3 receptor (Homo sapiens, UniProt Q9Y5N1)
# Chain of Histamine H3 receptor (Q9Y5N1 whole entry): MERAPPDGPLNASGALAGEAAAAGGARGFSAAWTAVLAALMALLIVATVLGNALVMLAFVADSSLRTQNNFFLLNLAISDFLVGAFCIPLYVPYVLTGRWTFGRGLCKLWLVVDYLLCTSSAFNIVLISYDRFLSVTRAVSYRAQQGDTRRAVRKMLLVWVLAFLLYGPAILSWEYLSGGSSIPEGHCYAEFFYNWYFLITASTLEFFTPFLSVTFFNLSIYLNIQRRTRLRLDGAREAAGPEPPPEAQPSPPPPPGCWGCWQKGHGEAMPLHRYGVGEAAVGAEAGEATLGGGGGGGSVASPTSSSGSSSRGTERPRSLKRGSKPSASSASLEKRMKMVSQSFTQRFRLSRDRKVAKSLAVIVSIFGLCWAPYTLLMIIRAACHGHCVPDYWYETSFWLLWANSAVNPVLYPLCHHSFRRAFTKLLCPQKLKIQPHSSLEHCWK
# [3] = biological target: T4, Alpha-2B adrenergic receptor (Homo sapiens, UniProt P18089)
# T4 sequence (P18089 whole entry): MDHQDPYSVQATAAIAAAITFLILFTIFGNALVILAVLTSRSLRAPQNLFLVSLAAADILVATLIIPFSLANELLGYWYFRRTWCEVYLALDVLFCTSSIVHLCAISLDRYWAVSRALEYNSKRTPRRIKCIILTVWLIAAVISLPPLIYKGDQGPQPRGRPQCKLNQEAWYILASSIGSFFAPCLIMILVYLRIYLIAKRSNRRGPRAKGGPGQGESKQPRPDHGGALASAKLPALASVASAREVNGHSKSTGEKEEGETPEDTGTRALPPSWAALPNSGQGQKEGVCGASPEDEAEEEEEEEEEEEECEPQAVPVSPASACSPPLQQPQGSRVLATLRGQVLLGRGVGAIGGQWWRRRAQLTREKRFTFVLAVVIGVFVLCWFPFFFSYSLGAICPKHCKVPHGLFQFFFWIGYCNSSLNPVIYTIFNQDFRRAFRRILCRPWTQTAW
# [4] = biological target: 5-hydroxytryptamine receptor 2A (Homo sapiens, UniProt P28223); type: functional, cell-based
# Chain of 5-hydroxytryptamine receptor 2A (P28223 whole entry): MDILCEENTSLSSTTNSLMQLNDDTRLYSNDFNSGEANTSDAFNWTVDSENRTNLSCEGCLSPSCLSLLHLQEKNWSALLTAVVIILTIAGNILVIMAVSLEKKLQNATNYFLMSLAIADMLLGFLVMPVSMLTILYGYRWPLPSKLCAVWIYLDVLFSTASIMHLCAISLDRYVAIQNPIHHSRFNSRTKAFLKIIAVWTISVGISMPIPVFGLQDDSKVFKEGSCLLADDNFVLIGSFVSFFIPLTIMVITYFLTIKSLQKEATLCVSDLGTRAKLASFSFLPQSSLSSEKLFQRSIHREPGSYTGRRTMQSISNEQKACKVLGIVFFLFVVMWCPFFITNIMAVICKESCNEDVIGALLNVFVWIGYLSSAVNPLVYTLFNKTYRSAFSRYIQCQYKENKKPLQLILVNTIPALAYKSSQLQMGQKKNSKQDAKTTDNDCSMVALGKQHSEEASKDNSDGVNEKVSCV
# Further: assay procedure not described here.
# Chain of Histamine H2 receptor (P25021 whole entry): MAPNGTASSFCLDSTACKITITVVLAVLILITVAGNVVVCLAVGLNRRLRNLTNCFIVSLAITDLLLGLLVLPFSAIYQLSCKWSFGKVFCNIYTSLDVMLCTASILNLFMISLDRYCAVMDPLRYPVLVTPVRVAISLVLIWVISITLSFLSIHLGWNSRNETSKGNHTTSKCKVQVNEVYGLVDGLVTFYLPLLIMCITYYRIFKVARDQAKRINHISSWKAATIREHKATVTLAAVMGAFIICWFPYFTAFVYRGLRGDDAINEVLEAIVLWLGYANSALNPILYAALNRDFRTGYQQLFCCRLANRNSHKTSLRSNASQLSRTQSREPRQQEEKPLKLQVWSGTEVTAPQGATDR
SMILES,AC50 (Histamine H2 receptor),AC50 [1],AC50 (Vasopressin V1a receptor),AC50 (Endothelin-1 receptor),AC50 (Thromboxane A2 receptor),AC50 [2],AC50 (Histamine H3 receptor),AC50 [3],AC50 [4]
CCN(CC)CCNC(=O)c1cc(Cl)c(N)cc1OC [METOCLOPRAMIDE],> 10 µM,> 30 µM,> 10 µM,> 30 µM,,,,,
Cc1cc(O)cc(C)c1Cl [CHLOROXYLENOL],,,,,28.3 µM,> 30 µM,> 30 µM,,
CCOC(=O)[C@H](CCc1ccccc1)N[C@@H](C)C(=O)N1CCC[C@H]1C(=O)O,> 10 µM,> 30 µM,> 10 µM,> 30 µM,,,,,
CC(C)Cc1ccc(CC(=O)O)cc1 [IBUFENAC],,,> 30 µM,> 30 µM,,,,> 30 µM,> 30 µM
O=C(O)c1cc(-c2ccc(F)cc2F)ccc1O [DIFLUNISAL],> 30 µM,,,,,,,,
CC(=O)c1ccc2c(c1)N(CCCN1CCN(CCO)CC1)c1ccccc1S2 [ACETOPHENAZINE],,,> 30 µM,> 30 µM,,,,0.056 µM,> 30 µM
CN1C(=O)CC(C)(c2ccccc2)C1=O (stereo not drawn) [METHSUXIMIDE],> 30 µM,,> 10 µM,,,,,> 10 µM,> 10 µM
NC(N)=Nc1nc(CSCCC(N)=NS(N)(=O)=O)cs1 [FAMOTIDINE],> 10 µM,> 30 µM,> 10 µM,> 30 µM,,,,,
CC(N)Cc1ccccc1 (stereo not drawn) [AMPHETAMINE],> 10 µM,> 30 µM,> 30 µM,> 30 µM,,,,,> 30 µM
CCc1nn(CCCN2CCN(c3cccc(Cl)c3)CC2)c(=O)n1CCOc1ccccc1 [NEFAZODONE],,> 30 µM,> 10 µM,> 30 µM,,,,0.34 µM,
CCCS(=O)(=O)Nc1ccc(F)c(C(=O)c2c[nH]c3ncc(-c4ccc(Cl)cc4)cc23)c1F [VEMURAFENIB],> 30 µM,> 30 µM,> 30 µM,> 30 µM,,,,> 30 µM,> 30 µM
NC[C@H]1CC[C@H](C(=O)O)CC1 [TRANEXAMIC ACID],> 30 µM,,,,,,,,
Cc1cc2c(cc1CC(=O)c1sccc1S(=O)(=O)Nc1onc(C)c1Cl)OCO2 [SITAXENTAN],,,,,> 10 µM,> 30 µM,> 30 µM,,
CCC[C@@H]1C[C@@H](C(=O)N[C@@H]([C@H]2O[C@H](SC)[C@H](O)[C@@H](O)[C@H]2O)[C@H](C)Cl)N(C)C1 [CLINDAMYCIN],> 10 µM,> 30 µM,> 10 µM,> 30 µM,,,,,
CC[C@H](C)C(=O)O[C@H]1C[C@H](O)C=C2C=C[C@H](C)[C@H](CC[C@@H](O)C[C@@H](O)CC(=O)O)[C@H]21 [PRAVASTATIN],> 10 µM,,,> 30 µM,,,,,
C[C@H]1C[C@@H]2[C@H]([C@@H](O)C[C@@]3(C)[C@H]2CC[C@]3(O)C(=O)CO)[C@@]2(C)C=CC(=O)C=C12 [METHYLPREDNISOLONE],> 30 µM,,,,,,,,
CNC(=O)c1cc(Oc2ccc(NC(=O)Nc3ccc(Cl)c(C(F)(F)F)c3)cc2)ccn1 [SORAFENIB],> 30 µM,> 10 µM,> 30 µM,> 30 µM,,,,> 30 µM,
NS(=O)(=O)c1cc2c(cc1Cl)NCNS2(=O)=O [HYDROCHLOROTHIAZIDE],> 10 µM,> 30 µM,> 10 µM,> 30 µM,,,,,
